Assay results taken from patent EP3327020A1, “CITRATE SALTS OF A JANUS KINASE (JAK) INHIBITOR” (SANDOZ AG, priority 2016, dated 2018).
≈ marks a conversion by molar mass, not a printed value. Entries after “also recorded” stand apart in the source; their conditions may differ.

Assay: Solubility in 0.1N aqueous HCl (saturated solution stirred at 37 °C for 1 hour, filtered, baricitinib concentration of the mother liquor determined by HPLC)
Type: physicochemical
Conditions: for solubility at 1 h: simulated gastric fluid, thermodynamic from solid, read-out: Solubility in 0.1N aqueous HCl after 1 hour
Procedure: The solubilities of baricitinib free base, phosphate, trifluoroacetate, monocitrate and dicitrate in 0.1N HCl have been determined. […] Thereafter, the solid was removed by filtration and the baricitinib concentration of the mother liquor was determined by HPLC.
The absolute solubility values were calculated from a calibration curve generated with solutions of known baricitinib concentrations and are listed in Table 5. Table 5: Comparative solubility data in 0.1N aqueous hydrochloric acid

[1] = 0.1N aqueous HCl, 37 °C, 1 hour, baricitinib concentration by HPLC

| SMILES | solubility at 1 h [1] [mg/mL] | Solubility in 0.1N aqueous HCl after 1 hour [1] [mg/mL] | solubility compared to the free base form (in words) (0.1N aqueous hydrochloric acid, listed as phosphate salt of baricitinib) | solubility relative to the solubility of baricitinib free base (0.1N aqueous hydrochloric acid) |
| --- | --- | --- | --- | --- |
| CCS(=O)(=O)N1CC(CC#N)(n2cc(-c3ncnc4[nH]ccc34)cn2)C1 [{1-(Ethylsulfonyl)-3-[4-(7H-pyrrolo[2,3-d]pyrimidin-4-yl)-1H-pyrazol-1-yl]azetidin-3-yl}acetonitrile] | 25 (≈ 67.3 mM) |  |  |  |
| CCS(=O)(=O)N1CC(CC#N)(n2cc(-c3ncnc4[nH]ccc34)cn2)C1.O=P(O)(O)O [Phosphate salt of WO 2009/114512 A1] |  | 26 | only a slightly increased solubility; also recorded: only slightly improved solubility values |  |
| CCS(=O)(=O)N1CC(CC#N)(n2cc(-c3ncnc4[nH]ccc34)cn2)C1.O=C(O)CC(O)(CC(=O)O)C(=O)O.O=C(O)CC(O)(CC(=O)O)C(=O)O [{1-(Ethylsulfonyl)-3-[4-(7H-pyrrolo[2,3-d]pyrimidin-4-yl)-1H-pyrazol-1-yl]azetidin-3-yl}acetonitrile dicitrate] | > 50 |  |  | more than 2 fold |
| CCS(=O)(=O)N1CC(CC#N)(n2cc(-c3ncnc4[nH]ccc34)cn2)C1.O=C(O)CC(O)(CC(=O)O)C(=O)O [{1-(Ethylsulfonyl)-3-[4-(7H-pyrrolo[2,3-d]pyrimidin-4-yl)-1H-pyrazol-1-yl]azetidin-3-yl}acetonitrile monocitrate] | > 50 |  |  | more than 2 fold |
